This note sets out measurements from PubChem BioAssay AID1996.

Molecules are shown by their SMILES. Values after ≈ are worked out from the molar mass of the structure shown.

The conditions of the series: buffer; pH 7.4; 200.0 µM.
The compound `Cc1nc(S/C(C(=O)O)=C2/C(=O)Nc3ccccc32)n[nH]1` came in with a solubility (kinetic) greater than 45.3 µg/mL.

`CC(=O)Oc1ccc(/C=C/c2nc3ccccc3c(=O)o2)cc1`: the solubility (kinetic) was less than 0.7 µg/mL. `Cc1csc(NS(=O)(=O)c2ccc(Cl)cc2)n1` had a kinetic solubility of 42.4 µg/mL (≈ 147 µM). Turning to `Cc1ccc(-c2nc(C=Nc3cccc(C)c3)c(O)o2)cc1`, the kinetic solubility amounted to 0.7 µg/mL (≈ 2.39 µM). `CC(OC(=O)c1ccc2c(c1)NC(=O)CS2)C(=O)c1ccc(F)cc1` (stereo not drawn) displayed a kinetic solubility of 18.1 µg/mL (≈ 50.4 µM). `Cc1cc(C)c(C(=O)CN2C(=O)NC3(CCCCC3)C2=O)cc1C` displayed a kinetic solubility of 2 µg/mL (≈ 6.09 µM). `COc1ccc(CNc2nc3ccccc3s2)cc1OC` returned a solubility (kinetic) of 1.4 µg/mL (≈ 4.66 µM). The result for `CCC(=O)Nc1cccc(-c2nc3ncccc3o2)c1C` reads greater than 42.2 µg/mL; that for `O=C(COc1cccnc1[N+](=O)[O-])Nc1cccc(Br)c1`, 2.7 µg/mL (≈ 7.67 µM); that for `O=C(O)Cn1c(-c2ccccc2)cc2ccccc21`, 25.3 µg/mL (≈ 101 µM). As for `CC(=O)Nc1ccc(S(=O)(=O)NCC2CCCO2)cc1` (stereo not drawn), the kinetic solubility is greater than 44.8 µg/mL.

In the case of `N#C/C(=C\c1ccccc1O)C(=O)Nc1cccnc1`, the solubility (kinetic) is 2.6 µg/mL (≈ 9.8 µM). `Cc1ccc(OCC(O)CN2CCOCC2)c(C)c1.Cl` (stereo not drawn) yielded a kinetic solubility greater than 45.3 µg/mL. The result for `N#Cc1cccc(NC(=O)COC(=O)c2cc(S(=O)(=O)Nc3ccccc3Cl)ccc2O)c1` reads 40.4 µg/mL (≈ 83.1 µM); that for `CCn1c(C)cc(/C=C2/SC(=O)N(C(C)C(=O)OC)C2=O)c1C` (stereo not drawn), 22.3 µg/mL (≈ 66.3 µM). `COc1ccc(C(C)NC(=S)NCc2ccc(F)cc2)cc1` (stereo not drawn) returned a solubility (kinetic) of 4.4 µg/mL (≈ 13.8 µM). For `CCN(CC)C(=O)C1CCCN(c2ccc([N+](=O)[O-])cc2)C1` (stereo not drawn), the solubility (kinetic) is greater than 45.8 µg/mL. In the case of `CS(=O)(=O)N(CC(=O)N1CCCCCC1)c1cccc([N+](=O)[O-])c1`, the solubility (kinetic) is greater than 53.3 µg/mL. The result for `CCn1c(COc2ccc(C)cc2)nc2ccccc21` reads 2.2 µg/mL (≈ 8.26 µM). As for `Cc1cc(S(=O)(=O)NCc2ccc3c(c2)OCO3)ccc1F`, the kinetic solubility is 46.8 µg/mL (≈ 145 µM). As to `CC1=C(C(=O)N(C)C)C(c2ccc(N3CCOCC3)cc2)NC(=O)N1` (stereo not drawn), the kinetic solubility amounted to 49.8 µg/mL (≈ 145 µM). The result for `Cc1cn2c(=O)c(C(=O)N3CCN(c4ccccc4F)CC3)cnc2s1` reads greater than 55.9 µg/mL.

As for `Cc1cccc(N(O)C(=O)Nc2cccc(Cl)c2)c1`, the kinetic solubility is 10.2 µg/mL (≈ 36.9 µM).

As to `N#CC1=C(N)NC(=S)C(C(N)=O)C1c1ccc(Cl)cc1Cl` (stereo not drawn), the kinetic solubility turned out to be 11.7 µg/mL (≈ 34.3 µM). The value for `O=C(Nc1ccc(Cl)cc1)C1(S(=O)(=O)c2ccccc2)CC1` was 7.7 µg/mL (≈ 22.9 µM); that for `CCOC(=O)c1ccc(N2C(=O)C=C(N3CCOCC3)C2=O)cc1` was greater than 49.6 µg/mL. Take `COc1ccccc1CNc1cncnc1`: the solubility (kinetic) worked out at 28.2 µg/mL (≈ 131 µM). For `CCC(C(=O)NCCc1c[nH]c2ccc(C)cc12)c1ccccc1` (stereo not drawn), the solubility (kinetic) amounted to 26.4 µg/mL (≈ 82.4 µM).

The compound `Cc1cccnc1NC(=O)c1ccc(Cl)c(S(=O)(=O)N2CCCC2)c1` yielded a solubility (kinetic) greater than 57 µg/mL. Compound `CN(CCO)CC(O)CN(c1ccccc1)c1ccccc1.Cl` (stereo not drawn) showed a kinetic solubility of 49.9 µg/mL.

`CCOc1ccccc1NC(=O)c1cc(=O)[nH]c2ccc(S(=O)(=O)N3CCOCC3)cc12` yielded a kinetic solubility of 21.4 µg/mL (≈ 46.8 µM). As for `Cc1cc2nc(-c3ccc[nH]c3=O)[nH]c2cc1C`, the solubility (kinetic) worked out at 3.3 µg/mL (≈ 13.8 µM). With `COc1ccccc1C(=O)Nn1c(C)nc2ccccc2c1=O`, the kinetic solubility was greater than 46.4 µg/mL. Turning to `N#Cc1ccccc1COC(=O)c1cccc(S(=O)(=O)N2CCCC2)c1`, the kinetic solubility worked out at 12 µg/mL (≈ 32.4 µM).

`O=C(CSc1ccccc1)NCCc1ccc(F)cc1` showed a solubility (kinetic) of 34.9 µg/mL (≈ 121 µM).

Turning to `Cc1cc(C(=O)Nc2ccc(F)cc2F)on1`, the kinetic solubility is greater than 35.7 µg/mL. In the case of `CCOC(=O)Nc1cccc(NC(=O)c2ccccc2F)c1`, the solubility (kinetic) was greater than 45.3 µg/mL.

Compound `CN1CCN(C(=O)c2cc([N+](=O)[O-])cc([N+](=O)[O-])c2)CC1` returned a solubility (kinetic) of 31.4 µg/mL (≈ 107 µM). `O=C(Nc1cc(Cl)cc(Cl)c1)N1CCCC1` had a kinetic solubility of 34.6 µg/mL (≈ 134 µM).

On to `O=C(NC12CC3CC(CC(C3)C1)C2)c1ccco1`, for which the kinetic solubility came out at 36.5 µg/mL (≈ 149 µM). The result for `CN(C)c1ccc(C=C2C(=O)NC(=O)NC2=O)cc1[N+](=O)[O-]` reads greater than 45.6 µg/mL; that for `CCN(CC)CC(=O)Nn1c(C)nc2c(ncn2-c2ccccc2)c1=O`, greater than 53.2 µg/mL. `Cc1ccc(NC(/C=C/N(C)C)=C/C(=O)C(F)(F)F)c(C)c1` registered a kinetic solubility of 37.8 µg/mL (≈ 121 µM). `Cc1cc(C)c(S(=O)(=O)Nc2cc(C)on2)c(C)c1` displayed a solubility (kinetic) of 37.2 µg/mL (≈ 133 µM). Turning to `COc1ccc(C(=O)Nc2ccc3ccccc3n2)c(OC)c1OC`, the kinetic solubility was found to be 2.2 µg/mL (≈ 6.5 µM). Compound `OC(CNC1CCCCC1)C(F)(F)F` (stereo not drawn) displayed a solubility (kinetic) greater than 31.7 µg/mL. In the case of `CCc1ccccc1N1CN(Cc2ccco2)CNC1=S`, the kinetic solubility is greater than 45.2 µg/mL. With `Cc1ccccc1/C=C/c1cc[n+](C)cc1.[I-]`, the kinetic solubility was greater than 50.6 µg/mL. `COC(=O)CSc1nnc(CNC(=O)c2ccc(OC)c(OC)c2)n1C` returned a solubility (kinetic) greater than 57.1 µg/mL. The value for `CC1CCCN(C(=O)C2CCN(S(=O)(=O)c3ccccc3)CC2)C1` (stereo not drawn) was greater than 52.6 µg/mL. The value for `CCc1cc2c(=O)n(CC(=O)NC3CCCCC3)cnc2s1` was 20.5 µg/mL (≈ 64.2 µM); that for `Cn1cccc1C(=O)NCC(c1ccco1)N1CCCCC1` (stereo not drawn) was greater than 45.2 µg/mL.

`O=CN1CCN(C(=O)c2cccc3c2-c2ccccc2C3=O)CC1`: the kinetic solubility was greater than 48.1 µg/mL.

`Cc1ccc2[nH]c(C)c(CCNCc3cccnc3)c2c1.Cl` gave a kinetic solubility of 47.1 µg/mL. On to `CSc1ccccc1NC(=O)COC(=O)/C=C/c1ccco1`, for which the solubility (kinetic) was 16.9 µg/mL (≈ 53.3 µM). For `COc1ccc(-c2nc3n(c(=O)c2C#N)CCS3)cc1OC`, the kinetic solubility amounted to 11.9 µg/mL (≈ 37.7 µM). Take `O=C(Nc1cc(-c2ccccc2)cs1)c1ccco1`: the solubility (kinetic) was 4.7 µg/mL (≈ 17.5 µM). Regarding `CC(C)N(Cc1cc2ccccc2[nH]c1=O)C(=O)c1ccco1`, the kinetic solubility was greater than 46.6 µg/mL. Compound `COC(=O)NC(C)N1C(=O)C2C3C=CC(C3)C2C1=O` (stereo not drawn) registered a kinetic solubility greater than 39.6 µg/mL.

Compound `C=CCn1c(=O)c2ccccc2n2c(SCC(=O)O)nnc12` showed a solubility (kinetic) greater than 47.4 µg/mL. In turn, `Cc1c(C(=O)NC(=S)Nc2cccnc2)cccc1[N+](=O)[O-]` returned a kinetic solubility of 0.9 µg/mL (≈ 2.85 µM). `O=C(Nc1ccc(F)c(Cl)c1)c1cncs1` registered a kinetic solubility greater than 38.5 µg/mL.

`C[C@](N)(Cc1ccc(O)c(O)c1)C(=O)O` had a kinetic solubility greater than 31.7 µg/mL. For `O=c1c(Cc2ccc(F)cc2)c(O)ccn1Cc1ccco1`, the solubility (kinetic) stood at 33 µg/mL (≈ 110 µM). `C/C(=C\c1ccccc1)C(=O)Nc1ccc(Cl)cn1` had a kinetic solubility of 7.2 µg/mL (≈ 26.4 µM).

As for `CN(C)/C=N/c1nccc(-c2cccs2)n1`, the solubility (kinetic) is greater than 34.8 µg/mL. Compound `COc1cc(=O)[nH]c(SC(C)C(=O)Nc2ccc3ccccc3c2)n1` (stereo not drawn) displayed a solubility (kinetic) of 0.8 µg/mL (≈ 2.25 µM). Compound `COc1cc(C=O)ccc1OCc1ccncc1` showed a solubility (kinetic) of 35.2 µg/mL (≈ 145 µM). As for `CC1CCCC(C)N1C(=O)COC(=O)c1ccc([N+](=O)[O-])o1` (stereo not drawn), the solubility (kinetic) is greater than 46.5 µg/mL. The value for `CC(=O)Nc1ccc(SCC(=O)c2cc(C)ccc2C)cc1` was 28 µg/mL (≈ 89.3 µM); that for `CCCCNC(=S)N1CCn2cccc2C1c1ccccc1` (stereo not drawn) was 5.5 µg/mL (≈ 17.5 µM). With `COc1ccc(OC)c(NC(=O)Nc2ccc3c(c2)OCO3)c1`, the solubility (kinetic) came to 2.3 µg/mL (≈ 7.27 µM).

As to `Cc1cc(C)cc(NC(=O)NCc2ccccn2)c1`, the solubility (kinetic) was greater than 38.3 µg/mL. Compound `COc1cc2c(cc1OC)C(c1ccccc1C)CC(=O)N2` (stereo not drawn) gave a solubility (kinetic) of less than 0.6 µg/mL.

With `COc1ccccc1CNC(=O)COC(=O)Cn1cnc2ccccc21`, the solubility (kinetic) turned out to be 38.3 µg/mL (≈ 108 µM). Consider `Cc1noc(-c2ccccc2)c1NC(=O)Nc1ccc(Cl)cc1`, for which the kinetic solubility was found to be 3.1 µg/mL (≈ 9.46 µM). Take `O=C(COC(=O)COc1ccccc1)Nc1ccc(Br)cc1Br`: the kinetic solubility was determined as 2.2 µg/mL (≈ 4.97 µM). With `CCCCn1c(N)c(N(CC)C(=O)c2cccc(F)c2)c(=O)[nH]c1=O`, the solubility (kinetic) is 52.1 µg/mL (≈ 150 µM).

Regarding `O=C(NCCc1c[nH]c2ccccc12)C(=O)NCC1CCCO1` (stereo not drawn), the kinetic solubility was 9 µg/mL (≈ 28.5 µM).

`CC1CNCCN1S(=O)(=O)c1cccc2cnccc12.Cl` (stereo not drawn): the kinetic solubility was greater than 54.6 µg/mL.

`Nc1ccccc1SCc1c(Cl)cccc1Cl`: the kinetic solubility was less than 0.6 µg/mL. Compound `CC(=O)c1ccc(S(=O)(=O)N2CCCc3ccccc32)cc1` showed a kinetic solubility of 24.5 µg/mL (≈ 77.7 µM). For `N#Cc1c(Nc2ccccc2)c(C=O)c[nH]c1=O`, the kinetic solubility is greater than 35.9 µg/mL.

The compound `CCOc1ccc(Cl)cc1S(=O)(=O)NCc1ccccn1` gave a solubility (kinetic) greater than 49 µg/mL. `Cc1ccc(C(=O)O)cc1NS(=O)(=O)c1ccc2c(c1)oc(=O)n2C` came in with a solubility (kinetic) of 44.8 µg/mL (≈ 124 µM). Regarding `CC(C)OCC(O)CN1CCC(Cc2ccccc2)CC1.Cl` (stereo not drawn), the solubility (kinetic) was greater than 49.2 µg/mL. Compound `NC(=O)c1cc(-c2ccccc2)nc2ccc(Br)cc12` yielded a solubility (kinetic) of 1.8 µg/mL (≈ 5.5 µM). `COC(=O)CNc1nc(Cl)nc(N2CCC(C)CC2)n1` yielded a kinetic solubility of 39.5 µg/mL (≈ 132 µM).

In turn, `CCN(CC(=O)NCc1ccc(Cl)cc1)C(=O)c1cc(S(=O)(=O)N2CCOCC2)ccc1C` registered a solubility (kinetic) greater than 74.1 µg/mL. Take `CC1CCCCC1NC(=O)CO/N=C/c1ccc(OC(F)F)cc1` (stereo not drawn): the kinetic solubility is 8.7 µg/mL (≈ 25.6 µM). The value for `Cc1ccccc1-c1cn(-c2ccccc2)c(=S)[nH]1` was 6.2 µg/mL (≈ 23.3 µM); that for `N#C/C(=C\c1ccc(O)c(O)c1)C(=O)Nc1cccc2ncccc12` was 20 µg/mL (≈ 60.4 µM); that for `CC1(C)CC(=O)c2cnc(NC(=O)CSC(=S)N3CCCCC3)nc2C1` was 2.9 µg/mL (≈ 7.39 µM). In turn, `CCOc1ccccc1N(C)C(=O)c1cn(C)c(=O)c2ccccc12` gave a solubility (kinetic) of 48.1 µg/mL (≈ 143 µM). `CC1CCCN(CCS(=O)(=O)c2ccccc2)C1` (stereo not drawn): the kinetic solubility was determined as 39.5 µg/mL (≈ 148 µM). `O=C(c1ccco1)c1cn(CC(=O)N2CCCC2)c2ccccc12` displayed a solubility (kinetic) greater than 48.4 µg/mL. Take `CN1CCN(c2oc(/C=C/c3ccccc3)nc2C#N)CC1`: the solubility (kinetic) turned out to be 40.3 µg/mL (≈ 137 µM). In the case of `Cn1c(SCC(=O)NCc2ccco2)nnc1C1CC1`, the kinetic solubility was greater than 43.9 µg/mL. `Cc1cc(SCC(=O)NC2CC2)nc2ccccc12` came in with a solubility (kinetic) greater than 40.9 µg/mL. `Cn1cnc(S(=O)(=O)Nc2ccccc2N2CCOCC2)c1` displayed a solubility (kinetic) greater than 48.4 µg/mL. The compound `COc1ccc(NC(=O)CSc2nc3nc(C)cc(C)c3c(=O)[nH]2)cc1OC` gave a kinetic solubility of 6.5 µg/mL (≈ 16.2 µM). In turn, `CCOc1cc(/C=C2\SC(=O)N(c3ccc(O)cc3)C2=O)ccc1O` gave a kinetic solubility of 4 µg/mL (≈ 11.2 µM).

Compound `CCN(C(=O)COC(=O)C1=COCCO1)c1ccccc1` had a kinetic solubility greater than 43.7 µg/mL.

By kinetic solubility is commonly meant solubility judged after dilution from a stock solution rather than from solid.
